Patent US20230279351A1, “ARTIFICIAL ANTIGEN-SPECIFIC IMMUNOREGULATORY T (AIRT) CELLS” (Seattle Children's Hospital (dba Seattle Children's …, priority 2019, published 2023)

Assays:
[1] = tested on: split IL-2 CISC (FRB-IL2RB and FKBP-IL2RG) dual-edited human CD4+ T cells; test: Enrichment of split IL-2 CISC dual-edited CD4+ T cells; format: cell-based
Experimental: FIG. 27 depicts an exemplary timeline of steps for dual AAV editing of CD4+ T cells, expansion with rapalog, and analysis of enriched cells. […] Flow cytometry to assess enrichment of GFP, mCherry double-positive cells was carried out on days 6, 8, and 10 post-editing.
CISC components (IL2RG vs. IL2RB) are split between 2 constructs and co-expressed with either HA-FoxP3 cDNA or the islet-specific TCR, T1D4 (AAVs #3240 and #3243 respectively). Each repair template is flanked by identical homology arms that […] the gRNA targeting the TRAC locus. […] Panel B depicts a timeline of key steps for dual AAV/RNP-based editing of CD4+ T cells, expansion with Rapalog and analysis of enriched cells. […] Flow cytometry to assess enrichment of HA-FoxP3, TCR double-positive cells was carried out on days 5 and 8 post-editing.
FIG. 60 relates to a strategy for testing two-loci dual-editing of human CD4+ T cells. […] CISC components are split between 2 constructs and co-expressed with either mCherry or GFP ([…]). Repair templates are flanked by homology arms matched to gRNAs targeting either the TRAC or FOXP3 locus, respectively. […] Panel B depicts a timeline showing steps for dual AAV editing of CD4+ T cells and expansion with Rapalog. Human CD4+ T cells were edited using human TRAC gRNA_4, human FOXP3 gRNA_T9 and #3251 (MND.mCherry.FKBP.IL2RG) and #3207 (MND.GFP.FRB.IL2RB) AAV constructs (two-loci dual editing). Immediately following electroporation, the cells were placed in either 20% or 2.5% FBS containing media (recovery media). After ~16 h, the media was replaced with 20% FBS containing media and FACS analysis done on day 3 to determine editing rate.
In order to obtain sufficient numbers of cells for therapeutic use, it may be useful, in some contexts, to selectively expand engineered cells in vitro. […] See e.g., FIG. 108. In such methods, FRB-IL2RB and FKBP-IL2RG components were contained in the same cassette to select for single integration events.
For these studies, FRB-IL2RB and FKBP-IL2RG components were split into two separate cassettes, one containing GFP and the other containing mCherry, to allow for selection of two independent integrations.
A timeline for key steps for dual AAV editing of CD4+ T cells and expansion with Rapalog is depicted in FIG. 124B. […] Briefly, human CD4+ T cells were edited using human TRAC gRNA_4, and #3240 (MND.HA.FOXP3.FKBP.IL2RG) and #3243 (MND.T1D4.FRB.IL2RB) AAV constructs (single-locus dual editing). Immediately following electroporation, the cells were placed in 2.5% FBS containing media (recovery media) for ~24 hours and then maintained in 20% FBS containing media throughout the rest of the experiment.

[2] = tested on: split-DISC (#3280 and #3207) dual-edited human CD4+ T cells; test: Enrichment/expansion of split-DISC dual-edited CD4+ T cells; format: cell-based; conditions: 7-day treatment in AP21967 in gREX, from 340,000 cells seeded
Experimental: Cells were bead-stimulated (CD3/CD28) for 3 days prior to editing. […] Panel C depicts flow plots show the percentage of GFP/mCherry double-positive cells on day 3 post-editing.
Dual-editing was performed as described in FIG. 70.
Split-DISC constructs were used to determine the enrichment and expansion of dual-edited T cells. The ability to scale up manufacturing to obtain cell numbers sufficient for animal studies by expanding edited CD4+ T cells in gREX flasks was assessed. In particular, dual-editing and enrichment of human CD4+ T Cells using split-DISC constructs was studied. […] Each repair template (#3280 and #3207) was flanked by identical homology arms matched to a gRNA targeting the TRAC locus. […] Cells were bead stimulated (CD3/CD28) for 3 days prior to editing. Immediately following electroporation, the cells were placed in 2.5% FBS containing media (recovery media) for ~24 hours and then maintained in 20% FBS containing media throughout the rest of the experiment. Three days post editing, cells were analyzed by flow for GFP and mCherry expression, and then expanded in media containing 50 ng/ml human IL-2 or 100 nM Rapalog.
Cells were bead stimulated (CD3/CD28) for 3 days prior to editing. Three days post editing, cells were analyzed by flow for GFP and mCherry expression, and then expanded in media containing 100 nM Rapalog for an additional 7 days.

Structure (SMILES): CO[C@H]1[C@@H](O)[C@H](C)C[C@H](C)/C=C/C=C/C=C(\C)[C@@H](c2c[nH]c3c(C)cccc23)C[C@@H]2CC[C@@H](C)[C@@](O)(O2)C(=O)C(=O)N2CCCC[C@H]2C(=O)O[C@H]([C@H](C)C[C@@H]2CC[C@@H](O)[C@H](OC)C2)C[C@H](O)[C@H](C)/C=C(\C)[C@H]1O [Rapalog]
- enrichment of double-positive cells ([1]; #3240 and #3243, cells recovered in 2.5% FBS, 7 days of Rapalog treatment): ~10 fold
- FOXP3/T1D4 double positive cells ([1]; #3240 and #3243, day 7, 100 nM AP21967 or 50 ng/mL IL-2, initial 1.6%): 19.1%
- GFP/mCherry double-positive cells ([1]; donor R003471, enriched in presence of Rapalog (FIG. 32)): 28.5%
- GFP/mCherry double-positive cells ([1]; donor R003657, enriched in presence of Rapalog (FIG. 32)): 13.8%
- enrichment of double-positive antigen-specific Treg population ([1]; over the course of the 10 day study): approximately 15 fold
- GFP/mCherry double-positive cells ([1]; two-loci #3207 and #3251, repeat experiment (FIG. 65), 10 days, initial 15.4%): 54%
- expansion of double positive cells [2]: 32 fold
